The values below come from PubChem BioAssay (NCI).

Each structure is given as a SMILES string. Where “and” joins values, the source holds several entries; their conditions need not be identical. Equal entries are not always repeated.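 48-hour exposure; five concentrations; linearly interpolated endpoints. GI50 marks 50% less growth. TGI: total growth inhibition.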 Where only a bound is given, the exact number is not on record here.

Test systems include DU-145 prostate; HCT-116 colon; SK-MEL-2 melanoma; CCRF-CEM leukemia; RPMI-8226 leukemia; SF-539 CNS; SK-MEL-28 melanoma; SNB-75 CNS; OVCAR-3 ovarian; SK-MEL-5 melanoma.
Holding throughout (assay): DTP human tumour cell line panel, 48 h

Usually TGI stands for the concentration giving total growth inhibition. A lower TGI goes with more potent growth arrest. As a reminder, the GI50 is the concentration that inhibits growth by half. Turning to `Nc1cc2c(c3ccccc13)C(CCl)CN2C(=O)c1cc2cc(NC(=O)c3cc4ccccc4o3)ccc2[nH]1` (stereo not drawn), the concentration for total growth inhibition (TGI) in the experiment with DU-145 prostate was 142 µM; in the experiment with HCT-116 colon, over 1100 µM; in the experiment on SK-MEL-2 melanoma it was 0.0109 µM and < 0.11 µM. The GI50 in the experiment with HCT-116 colon is over 110 nM; in the experiment with SK-MEL-2 melanoma, over 0.11 µM.

Turning to `COc1ncnn2ccc(-c3cnc4nc(C)n(Cc5nnc(C(C)F)o5)c4c3)c12` (stereo not drawn), the 50% growth inhibitory concentration (GI50) was 0.11 µM with CCRF-CEM leukemia; 0.288 µM in the experiment on DU-145 prostate; 41 nM in the experiment with HCT-116 colon; 201 nM in the experiment with RPMI-8226 leukemia; 0.218 µM in the experiment with SF-539 CNS; 0.0748 µM with SK-MEL-2 melanoma. The concentration for 50% growth inhibition (GI50) in the experiment with SK-MEL-28 melanoma was 0.298 µM; in the experiment with SNB-75 CNS, 0.191 µM. The TGI is over 74.6 µM with CCRF-CEM leukemia; over 100 µM in the experiment with DU-145 prostate; over 100 µM in the experiment with HCT-116 colon; over 45.6 µM with RPMI-8226 leukemia; 0.674 µM in the experiment with SF-539 CNS; 0.236 µM in the experiment with SK-MEL-2 melanoma. Moreover, the figures for the TGI in the experiment with SK-MEL-28 melanoma and in the experiment with SNB-75 CNS were 13.8 µM and 1.75 µM, respectively.

With `COc1ccc(C(=O)O[C@@H]2CCN3CC[C@H](C)[C@H]23)cc1`, the TGI with DU-145 prostate, with HCT-116 colon, in the experiment with OVCAR-3 ovarian, with RPMI-8226 leukemia, with SF-539 CNS and in the experiment on SK-MEL-2 melanoma was over 100 µM each time. The TGI with SK-MEL-28 melanoma, in the experiment with SK-MEL-5 melanoma and in the experiment with SNB-75 CNS was over 100 µM throughout.

Regarding `CC12OC(C(=O)C13CC3)C1C(=O)c3cccc(O)c3C(=O)C12` (stereo not drawn), the GI50 is 15.3 µM in the experiment on DU-145 prostate; 4310 nM in the experiment with HCT-116 colon; 2.49 µM in the experiment with OVCAR-3 ovarian; 2220 nM in the experiment with RPMI-8226 leukemia; 5.36 µM with SF-539 CNS; 47.3 µM with SK-MEL-2 melanoma. Besides, the GI50 in the experiment with SK-MEL-28 melanoma was 23.1 µM; with SK-MEL-5 melanoma it was 6.79 µM; in the experiment on SNB-75 CNS, 12.5 µM. Besides, the total growth inhibition concentration (TGI) in the experiment on DU-145 prostate is 56.2 µM; with HCT-116 colon it was 6.42 µM; in the experiment on OVCAR-3 ovarian, 19.9 µM; in the experiment on RPMI-8226 leukemia it was over 100 µM; with SF-539 CNS, over 56.1 µM; in the experiment with SK-MEL-2 melanoma, over 100 µM. Moreover, the results for the concentration for total growth inhibition (TGI) with SK-MEL-28 melanoma, with SK-MEL-5 melanoma and in the experiment on SNB-75 CNS were over 61.4 µM, over 100 µM and over 37.4 µM, respectively.

`CC[n+]1c(/C=C/c2ccc(N3CCCC3)cc2)cccc1/C=C/c1ccc(N2CCCC2)cc1`: the 50% growth inhibitory concentration (GI50) is 0.312 µM and 0.24 µM with DU-145 prostate; 83.8 nM in the experiment on HCT-116 colon; 0.255 µM in the experiment on OVCAR-3 ovarian; 7.2 nM and 14.9 nM in the experiment with RPMI-8226 leukemia; 0.274 µM with SF-539 CNS; 0.56 µM in the experiment on SK-MEL-2 melanoma. Besides, the 50% growth inhibitory concentration (GI50) is 0.194 µM and 0.169 µM in the experiment on SK-MEL-28 melanoma; 0.116 µM with SK-MEL-5 melanoma; 0.16 µM in the experiment on SNB-75 CNS. For the same compound, the concentration for total growth inhibition (TGI) in the experiment on DU-145 prostate is 1.19 µM and 1.22 µM; in the experiment with HCT-116 colon, 1.28 µM; in the experiment with OVCAR-3 ovarian, 0.811 µM; in the experiment with RPMI-8226 leukemia, 0.131 µM and 0.261 µM; in the experiment on SF-539 CNS it was 1.44 µM; in the experiment with SK-MEL-2 melanoma, 2.38 µM. Besides, the TGI was 0.374 µM and 0.321 µM with SK-MEL-28 melanoma; 0.274 µM in the experiment with SK-MEL-5 melanoma; 0.88 µM with SNB-75 CNS.

On to `Clc1ccc(Nc2ncnc3ccccc23)cc1`, for which the GI50 is 48.8 µM with CCRF-CEM leukemia; 26.4 µM in the experiment on DU-145 prostate; 81500 nM with HCT-116 colon; 34.9 µM in the experiment with OVCAR-3 ovarian; over 100 µM with SF-539 CNS; over 100 µM in the experiment with SK-MEL-28 melanoma. In addition, the GI50 with SK-MEL-5 melanoma was 21.6 µM. The total growth inhibition concentration (TGI) in the experiment with CCRF-CEM leukemia, in the experiment with DU-145 prostate, in the experiment on HCT-116 colon, in the experiment with OVCAR-3 ovarian, with SF-539 CNS and with SK-MEL-28 melanoma was over 100 µM each time. Also, in the experiment on SK-MEL-5 melanoma, the TGI came out at 56.1 µM.

In the case of `CN(CCNc1ccc(C(=N)N)cc1)c1ccc(C(=N)N)cc1`, the GI50 in the experiment with CCRF-CEM leukemia is 88.8 µM; with DU-145 prostate, 19.2 µM; in the experiment with HCT-116 colon it was over 100000 nM; with OVCAR-3 ovarian it was 37.3 µM; in the experiment with SF-539 CNS, 35.1 µM; in the experiment with SK-MEL-2 melanoma, 18 µM. Further, the GI50 with SK-MEL-28 melanoma was 36.4 µM; in the experiment on SK-MEL-5 melanoma, 13.2 µM; in the experiment on SNB-75 CNS, 27.6 µM. Besides, the concentration for total growth inhibition (TGI) in the experiment on CCRF-CEM leukemia, in the experiment on DU-145 prostate, with HCT-116 colon, in the experiment on OVCAR-3 ovarian, in the experiment on SF-539 CNS and in the experiment with SK-MEL-2 melanoma was over 100 µM in each case. For the same compound, the TGI in the experiment with SK-MEL-28 melanoma was over 100 µM; in the experiment on SK-MEL-5 melanoma it was 28.3 µM; in the experiment with SNB-75 CNS, over 100 µM.

Take `N#CC1(C#N)C2C=CC(C3CC=CC32)C1(C#N)C#N` (stereo not drawn): the TGI was 3.43 µM in the experiment with CCRF-CEM leukemia; 16.7 µM in the experiment on DU-145 prostate; 3.4 µM and 15.7 µM in the experiment with HCT-116 colon; 5.1 µM and 14.5 µM in the experiment with OVCAR-3 ovarian; 4.89 µM and 21.1 µM in the experiment with RPMI-8226 leukemia; 17.2 µM in the experiment with SF-539 CNS. Further, the results for the concentration for total growth inhibition (TGI) in the experiment on SK-MEL-2 melanoma, in the experiment with SK-MEL-28 melanoma and with SK-MEL-5 melanoma were 32.1 µM, 21.6 µM and 15.6 µM, respectively. Besides, the GI50 in the experiment with HCT-116 colon is 7850 nM; in the experiment with OVCAR-3 ovarian it was 6.81 µM; with RPMI-8226 leukemia it was 8860 nM; in the experiment on SK-MEL-5 melanoma it was 8.61 µM.

With `CCCC(c1cc(C(C)(C)C)c(O)cc1C)c1cc(C(C)(C)C)c(O)cc1C`, the concentration for total growth inhibition (TGI) in the experiment on CCRF-CEM leukemia was determined as 6.88 µM; in the experiment with DU-145 prostate, 14.7 µM; in the experiment on HCT-116 colon, 3.96 µM; in the experiment with OVCAR-3 ovarian, 3.93 µM; in the experiment with RPMI-8226 leukemia, 5.77 µM; in the experiment with SF-539 CNS, 4.7 µM. Also, the total growth inhibition concentration (TGI) came out at 7.22 µM in the experiment with SK-MEL-2 melanoma, 12.4 µM in the experiment with SK-MEL-28 melanoma and 3.26 µM in the experiment on SK-MEL-5 melanoma.

Turning to `Cc1ccc([I+]c2ccc(C)cc2)cc1`, the GI50 is 12 µM in the experiment on DU-145 prostate; 821 nM with HCT-116 colon; 7.63 µM with OVCAR-3 ovarian; 1160 nM in the experiment with RPMI-8226 leukemia; 16.4 µM in the experiment with SF-539 CNS; 14.1 µM in the experiment with SK-MEL-2 melanoma. Also, the GI50 was 10.6 µM with SK-MEL-28 melanoma, 0.79 µM in the experiment with SK-MEL-5 melanoma and 7.44 µM with SNB-75 CNS. Further, the TGI in the experiment with DU-145 prostate is over 100 µM; in the experiment on HCT-116 colon, over 100 µM; in the experiment on OVCAR-3 ovarian, over 100 µM; in the experiment with RPMI-8226 leukemia it was 50 µM; in the experiment on SF-539 CNS, over 100 µM; in the experiment on SK-MEL-2 melanoma it was 94.4 µM. Also, the total growth inhibition concentration (TGI) in the experiment with SK-MEL-28 melanoma was over 100 µM; in the experiment on SK-MEL-5 melanoma, 3.89 µM; in the experiment with SNB-75 CNS, over 100 µM.
